Test results: patent publication US20050112573A1, “Method of detecting toxic substance” (priority 2001, published 2005)

System: yeast genes (level of expressed mRNA)
Assay: DNA chip analysis of expressed mRNA of yeast genes after 2 h culture with a toxic chemical substance
Format: cell-based, Saccharomyces cerevisiae S288C
Procedure: Yeast (Saccharomyces cerevtisiae S288C (α SUC2mal mel gap2 CUP1)) were cultured at 25° C. on YPD medium (yeast extract 1%, polypepton 2%, glucose 2%). One of toxic chemical substances was added to the cell at logarithmic growth phase, and the cell was further cultured for two hours. Cell was cultured without any chemical substance in the same condition, and was used as control. Concentrations of the chemical substances were defined to inhibit the growth of the yeast but not lead to death.
After the completion of cultivation, the culture was centrifuged to collect the cells. To the cells, sodium acetate buffer (50 mM sodium acetate, 10 mM EDTA, 1% SDS) was added, and the mixture was shaken at 65° C. for five minutes, followed by returning to room temperature, and obtaining the supernatant, which procedure was repeated two times. To the supernatant, ½ amount of a solution of phenol/chloroform was added, and the mixture was centrifuged to give a supernatant, which was added with an equal amount of chloroform, and the mixture was centrifuged to give a supernatant. To the supernatant, an equal amount of isopropanol containing 0.3 M sodium acetate was added, and the mixture was allowed to stand at room temperature for 30 minutes, after which the mixture was centrifuged to give a sediment of the whole RNAs. Seventy % ethanol was added to the sediment, and the mixture was again centrifuged to give a sediment, which was then dried and dissolved in water. mRNA was isolated from the whole RNAs as followings. In view of the fact that a poly A chain is attached to the 3′ terminus of mRNA, a polynucleotide having a poly T structure which was immobilized on the surface of latex beads was used to trap the mRNA, and then the mRNA was washed and eluted with spine column (Oligotex-dT30<Super>mRNA Purification Kit, Takara). Reverse transcription of the mRNA was conducted with a reverse transcriptase (Super Script II Reverse Transcriptase; catalogue No. 18064-014, GibcoBRL) using fluorescence-labeled nucleotides to give cDNAs that were introduced with Cy3-dUTP or Cy5-dUTP during the reverse transcription.
The labeled cDNAs were dissolved in TE buffer (10 mM Tris-HCl/1 mM EDTA, pH8.0), and the solution was dropped on the DNA chip containing the whole genes of yeast (DNA Chip Research Inc. Japan) so that the cDNAs were hybridized on the DNA chip at 65° C. for over 12 hours. The fluoresces intensity of the DNA chip was read with a scanner, and the ratio relative to the fluorescence intensity resulting from the absence of chemical substance was estimated as the following, which is shown in Tables 1 to 9: [formula]
In the Tables, “Intensity” indicated in the rightmost column is a value of the level of expressed mRNA of each gene in control cells as divided by the average level of the expressions of the whole genes.

## CCCCC[C@H](O)CC(=O)CCc1ccc(O)c(OC)c1 [(13), gingerol]
Gene YML029W
  The level of expressed mRNA in the presence of chemical substance/absence: YML029W: 2.0
Gene YML041C
  The level of expressed mRNA in the presence of chemical substance/absence: YML041C: 1.2
Gene YML079W
  The level of expressed mRNA in the presence of chemical substance/absence: YML079W: 1.6
Gene YML110C
  level of expressed mRNA in the presence of chemical substance/in its absence: 1.8
Gene YML118W
  The level of expressed mRNA in the presence of chemical substance/absence: YML118W: 1.7
Gene YMR068W
  The level of expressed mRNA in the presence of chemical substance/absence: YMR068W: 1.4
Gene YMR071C
  The level of expressed mRNA in the presence of chemical substance/absence: YMR071C: 1.3
Gene YMR105C
  level of expressed mRNA in the presence of chemical substance/in its absence: 3.3
Gene YMR114C
  The level of expressed mRNA in the presence of chemical substance/absence: YMR114C: 1.1
Gene YMR115W
  The level of expressed mRNA in the presence of chemical substance/absence: YMR115W: 1.3
Gene YMR160W
  The level of expressed mRNA in the presence of chemical substance/absence: YMR160W: 1.6
Gene YMR189W
  level of expressed mRNA in the presence of chemical substance/in its absence: 0.9
Gene YMR258C
  The level of expressed mRNA in the presence of chemical substance/absence: YMR258C: 1.6
Gene YMR271C
  level of expressed mRNA in the presence of chemical substance/in its absence: 3.6
Gene YMR272C
  level of expressed mRNA in the presence of chemical substance/in its absence: 1.2
Gene YMR296C
  level of expressed mRNA in the presence of chemical substance/in its absence: 0.9
Gene YNL012W
  level of expressed mRNA in the presence of chemical substance/in its absence: 2.9
Gene YNL026W
  The level of expressed mRNA in the presence of chemical substance/absence: YNL026W: 1.7
Gene YNL037C
  level of expressed mRNA in the presence of chemical substance/in its absence: 1.9
Gene YNL045W
  level of expressed mRNA in the presence of chemical substance/in its absence: 2.6
Gene YNL058C
  The level of expressed mRNA in the presence of chemical substance/absence: YNL058C: 0.6
Gene YNL063W
  The level of expressed mRNA in the presence of chemical substance/absence: YNL063W: 1.5
Gene YNL104C
  level of expressed mRNA in the presence of chemical substance/in its absence: 2.1
Gene YNL106C
  level of expressed mRNA in the presence of chemical substance/in its absence: 0.9
Gene YNL130C
  level of expressed mRNA in the presence of chemical substance/in its absence: 1.9
Gene YNL169C
  level of expressed mRNA in the presence of chemical substance/in its absence: 1.7
Gene YNL176C
  The level of expressed mRNA in the presence of chemical substance/absence: YNL176C: 0.6
Gene YNL181W
  The level of expressed mRNA in the presence of chemical substance/absence: YNL181W: 1.8
Gene YNL191W
  The level of expressed mRNA in the presence of chemical substance/absence: YNL191W: 0.6
Gene YNL194C
  The level of expressed mRNA in the presence of chemical substance/absence: YNL194C: 1.5
Gene YNL200C
  The level of expressed mRNA in the presence of chemical substance/absence: YNL200C: 1.1
Gene YNL212W
  The level of expressed mRNA in the presence of chemical substance/absence: YNL212W: 1.3
Gene YNL231C
  level of expressed mRNA in the presence of chemical substance/in its absence: 2.9
Gene YNL253W
  The level of expressed mRNA in the presence of chemical substance/absence: YNL253W: 1.1
Gene YNL265C
  The level of expressed mRNA in the presence of chemical substance/absence: YNL265C: 2.0
Gene YNL276C
  The level of expressed mRNA in the presence of chemical substance/absence: YNL276C: 1.5
Gene YNL322C
  level of expressed mRNA in the presence of chemical substance/in its absence: 0.8
Gene YNR002C
  level of expressed mRNA in the presence of chemical substance/in its absence: 2.1
Gene YNR019W
  level of expressed mRNA in the presence of chemical substance/in its absence: 2.1
Gene YNR033W
  level of expressed mRNA in the presence of chemical substance/in its absence: 3.8
Gene YNR051C
  The level of expressed mRNA in the presence of chemical substance/absence: YNR051C: 2.1
Gene YNR059W
  level of expressed mRNA in the presence of chemical substance/in its absence: 2.4
Gene YOL026C
  The level of expressed mRNA in the presence of chemical substance/absence: YOL026C: 1.2
Gene YOL030W
  The level of expressed mRNA in the presence of chemical substance/absence: YOL030W: 1.7
Gene YOL058W
  level of expressed mRNA in the presence of chemical substance/in its absence: 1.2
Gene YOL126C
  level of expressed mRNA in the presence of chemical substance/in its absence: 2.6
Gene YOL143C
  level of expressed mRNA in the presence of chemical substance/in its absence: 1.2
Gene YOL153C
  level of expressed mRNA in the presence of chemical substance/in its absence: 2.9
Gene YOL157C
  level of expressed mRNA in the presence of chemical substance/in its absence: 1.4
Gene YOR022C
  The level of expressed mRNA in the presence of chemical substance/absence: YOR022C: 1.7
Gene YOR087W
  The level of expressed mRNA in the presence of chemical substance/absence: YOR087W: 1.2
Gene YOR088W
  The level of expressed mRNA in the presence of chemical substance/absence: YOR088W: 0.4
Gene YOR099W
  level of expressed mRNA in the presence of chemical substance/in its absence: 1.6
Gene YOR130C
  level of expressed mRNA in the presence of chemical substance/in its absence: 2.1
Gene YOR136W
  level of expressed mRNA in the presence of chemical substance/in its absence: 1.5
Gene YOR138C
  The level of expressed mRNA in the presence of chemical substance/absence: YOR138C: 1.8
Gene YOR253W
  The level of expressed mRNA in the presence of chemical substance/absence: YOR253W: 0.5
